According to US10246453B2, “Benzenesulfonamide compounds and their use as therapeutic agents” (Xenon Pharmaceuticals Inc., priority 2016, dated 2019):
Counter-ions that a name gives are not always drawn. Like-named read-outs stand apart in the source and are kept apart here.

Assays:
NaV1.1 [1] = target: T1, NaV1.1 (Homo sapiens (Human), UniProt P35498); assay: Sodium Influx Assay (Flux), NaV1.1; type: cell-based; conditions: Trex HEK293 cells, ANG2 dye; arithmetic mean
NaV1.5 [2] = target: T2, NaV1.5 (Homo sapiens (Human), UniProt Q14524); assay: cell-based
NaV1.6 [3] = target: T3, NaV1.6 (Homo sapiens (Human), UniProt Q9UQD0); assay: Sodium Influx Assay (Flux), NaV1.6
NaV1.6 [4] = target: T3, NaV1.6; assay: Electrophysiological Assay (EP), patch voltage clamp, NaV1.6; type: cell-based; conditions: HEK-293 cells, whole-cell patch clamp, inactivated state; arithmetic mean
NaV1.1 [5] = target: T1, NaV1.1; assay: Electrophysiological Assay (EP), patch voltage clamp, NaV1.1; type: cell-based; conditions: HEK-293 cells, whole-cell patch clamp, inactivated state; arithmetic mean
NaV1.5 [6] = target: T2, NaV1.5
NaV1.5 [7] = target: T2, NaV1.5; assay: Sodium Influx Assay (Flux), NaV1.5; conditions: read-out: Flux NaV1.5 IC50; Trex HEK293 cells, ANG2 dye; arithmetic mean
[8] = read-out: Flux NaV1.6 IC50, Trex HEK293 cells, ANG2 dye, arithmetic mean

T2 sequence (Q14524 other isoform, or with tags, fused parts or gaps): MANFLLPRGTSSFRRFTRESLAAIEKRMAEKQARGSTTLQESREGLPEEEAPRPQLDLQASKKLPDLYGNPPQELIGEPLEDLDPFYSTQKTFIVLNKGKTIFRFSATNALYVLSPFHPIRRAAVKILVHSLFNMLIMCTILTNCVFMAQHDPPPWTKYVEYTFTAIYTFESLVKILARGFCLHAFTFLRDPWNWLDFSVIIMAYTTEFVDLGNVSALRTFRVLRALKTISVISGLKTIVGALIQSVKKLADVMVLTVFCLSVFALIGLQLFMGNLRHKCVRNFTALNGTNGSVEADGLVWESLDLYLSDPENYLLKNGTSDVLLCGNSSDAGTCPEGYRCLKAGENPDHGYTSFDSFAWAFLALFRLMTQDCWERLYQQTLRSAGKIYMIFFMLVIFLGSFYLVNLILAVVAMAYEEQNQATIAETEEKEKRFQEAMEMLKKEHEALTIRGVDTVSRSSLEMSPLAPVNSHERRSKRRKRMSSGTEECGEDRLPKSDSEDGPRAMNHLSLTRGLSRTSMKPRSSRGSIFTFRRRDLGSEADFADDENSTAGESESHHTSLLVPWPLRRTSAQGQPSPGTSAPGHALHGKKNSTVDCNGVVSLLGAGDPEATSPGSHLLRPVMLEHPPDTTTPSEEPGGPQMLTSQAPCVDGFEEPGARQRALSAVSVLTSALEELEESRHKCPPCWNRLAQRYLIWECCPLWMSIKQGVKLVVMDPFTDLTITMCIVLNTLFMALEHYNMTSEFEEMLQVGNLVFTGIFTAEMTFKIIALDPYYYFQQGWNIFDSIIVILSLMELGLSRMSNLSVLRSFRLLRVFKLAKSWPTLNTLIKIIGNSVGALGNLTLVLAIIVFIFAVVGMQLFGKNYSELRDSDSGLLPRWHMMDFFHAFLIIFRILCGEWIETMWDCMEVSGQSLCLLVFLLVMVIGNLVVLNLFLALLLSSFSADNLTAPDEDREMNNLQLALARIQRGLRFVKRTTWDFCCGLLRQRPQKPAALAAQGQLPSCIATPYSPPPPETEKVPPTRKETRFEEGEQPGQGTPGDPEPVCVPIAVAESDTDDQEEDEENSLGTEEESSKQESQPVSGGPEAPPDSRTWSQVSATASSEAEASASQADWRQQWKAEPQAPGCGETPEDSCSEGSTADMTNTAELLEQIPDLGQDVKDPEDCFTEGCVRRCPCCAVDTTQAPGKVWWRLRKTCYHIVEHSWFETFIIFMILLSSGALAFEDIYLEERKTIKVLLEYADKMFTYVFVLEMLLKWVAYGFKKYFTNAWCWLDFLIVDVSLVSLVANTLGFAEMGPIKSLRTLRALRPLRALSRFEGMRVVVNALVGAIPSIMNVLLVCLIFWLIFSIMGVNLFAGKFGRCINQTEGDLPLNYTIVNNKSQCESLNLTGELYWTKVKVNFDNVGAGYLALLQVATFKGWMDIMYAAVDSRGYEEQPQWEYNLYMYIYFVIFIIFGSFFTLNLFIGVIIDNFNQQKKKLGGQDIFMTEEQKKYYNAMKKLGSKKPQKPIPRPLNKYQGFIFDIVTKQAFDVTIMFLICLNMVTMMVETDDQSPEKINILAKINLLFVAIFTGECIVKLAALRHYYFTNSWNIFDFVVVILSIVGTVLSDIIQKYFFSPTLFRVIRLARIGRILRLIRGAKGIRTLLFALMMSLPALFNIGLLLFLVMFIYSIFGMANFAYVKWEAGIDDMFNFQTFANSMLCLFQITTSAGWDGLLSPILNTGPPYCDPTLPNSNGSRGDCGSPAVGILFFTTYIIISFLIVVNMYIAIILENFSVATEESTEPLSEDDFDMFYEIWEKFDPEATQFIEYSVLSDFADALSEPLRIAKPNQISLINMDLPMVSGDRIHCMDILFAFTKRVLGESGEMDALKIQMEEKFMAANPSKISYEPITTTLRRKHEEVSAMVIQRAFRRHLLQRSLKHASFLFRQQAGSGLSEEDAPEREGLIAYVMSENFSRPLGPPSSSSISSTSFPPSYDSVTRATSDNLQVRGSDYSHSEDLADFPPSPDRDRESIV
T3 sequence (Q9UQD0 whole entry): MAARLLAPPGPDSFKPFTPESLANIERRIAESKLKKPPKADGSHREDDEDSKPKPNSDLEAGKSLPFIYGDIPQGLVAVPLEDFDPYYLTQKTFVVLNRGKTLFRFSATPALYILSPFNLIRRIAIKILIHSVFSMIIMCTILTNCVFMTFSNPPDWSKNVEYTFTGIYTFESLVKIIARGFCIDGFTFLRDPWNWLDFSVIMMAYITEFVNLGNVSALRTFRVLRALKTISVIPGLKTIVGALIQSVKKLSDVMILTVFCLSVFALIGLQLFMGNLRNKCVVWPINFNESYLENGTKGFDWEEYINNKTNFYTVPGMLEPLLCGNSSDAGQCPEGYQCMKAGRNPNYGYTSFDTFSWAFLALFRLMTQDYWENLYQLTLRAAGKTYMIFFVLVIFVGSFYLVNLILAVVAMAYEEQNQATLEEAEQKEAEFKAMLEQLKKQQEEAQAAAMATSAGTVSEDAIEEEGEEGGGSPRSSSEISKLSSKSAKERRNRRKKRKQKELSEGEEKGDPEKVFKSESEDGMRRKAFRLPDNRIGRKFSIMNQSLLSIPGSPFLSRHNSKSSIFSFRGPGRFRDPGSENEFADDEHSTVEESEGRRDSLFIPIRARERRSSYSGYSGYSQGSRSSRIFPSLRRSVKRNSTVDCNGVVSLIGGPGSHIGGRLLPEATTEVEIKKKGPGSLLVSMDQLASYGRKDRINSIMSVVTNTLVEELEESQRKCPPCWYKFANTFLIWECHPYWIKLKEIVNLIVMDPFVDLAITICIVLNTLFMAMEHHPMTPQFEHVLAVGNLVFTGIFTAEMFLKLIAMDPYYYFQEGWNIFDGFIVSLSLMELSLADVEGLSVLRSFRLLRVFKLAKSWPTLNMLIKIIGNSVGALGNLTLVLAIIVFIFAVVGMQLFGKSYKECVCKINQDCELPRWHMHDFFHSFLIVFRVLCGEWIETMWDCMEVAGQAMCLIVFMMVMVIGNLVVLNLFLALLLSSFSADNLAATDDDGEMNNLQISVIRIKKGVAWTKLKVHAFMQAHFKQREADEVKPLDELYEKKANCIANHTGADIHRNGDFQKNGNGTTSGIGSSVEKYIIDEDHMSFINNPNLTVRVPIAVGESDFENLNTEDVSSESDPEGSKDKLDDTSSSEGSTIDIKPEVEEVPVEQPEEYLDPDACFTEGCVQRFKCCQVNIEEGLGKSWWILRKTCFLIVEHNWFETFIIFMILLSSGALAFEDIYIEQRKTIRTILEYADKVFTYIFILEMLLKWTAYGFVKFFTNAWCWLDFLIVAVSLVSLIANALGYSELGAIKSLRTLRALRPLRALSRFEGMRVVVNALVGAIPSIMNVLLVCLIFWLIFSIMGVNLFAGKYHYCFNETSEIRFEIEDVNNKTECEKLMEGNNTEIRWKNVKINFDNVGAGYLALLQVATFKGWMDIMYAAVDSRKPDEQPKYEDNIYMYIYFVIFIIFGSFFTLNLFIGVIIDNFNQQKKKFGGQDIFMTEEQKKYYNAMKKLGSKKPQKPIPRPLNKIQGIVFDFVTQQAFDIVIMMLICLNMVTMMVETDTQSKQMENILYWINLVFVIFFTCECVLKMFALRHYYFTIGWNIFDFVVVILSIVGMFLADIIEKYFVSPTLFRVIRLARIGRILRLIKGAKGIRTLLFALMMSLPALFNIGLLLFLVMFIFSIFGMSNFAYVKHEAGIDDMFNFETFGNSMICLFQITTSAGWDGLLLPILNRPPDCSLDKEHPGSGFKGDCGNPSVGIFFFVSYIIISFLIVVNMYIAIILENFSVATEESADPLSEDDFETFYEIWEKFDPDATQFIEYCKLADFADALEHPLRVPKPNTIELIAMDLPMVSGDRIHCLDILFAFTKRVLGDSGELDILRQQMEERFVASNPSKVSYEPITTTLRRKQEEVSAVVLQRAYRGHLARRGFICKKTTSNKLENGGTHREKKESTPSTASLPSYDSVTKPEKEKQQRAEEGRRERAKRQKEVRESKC

| IC50 (NaV1.6 [3]) [µM] | Compound | IC50 (NaV1.1 [1]) [µM] | IC50 (NaV1.5 [2]) [µM] | IC50 (NaV1.6 [4]) [µM] | IC50 (NaV1.1 [5]) [µM] | IC50 (NaV1.5 [6]) [µM] | IC50 (NaV1.6 [3]; [8]) [µM] | IC50 (NaV1.5 [7]) [µM] |
| --- | --- | --- | --- | --- | --- | --- | --- | --- |
| 3.24 | C[C@H](c1cc(C2CC2)ccc1F)N1CCC(Oc2ccc(S(=O)(=O)Nc3cscn3)cc2Cl)CC1 (stereo in doubt) [Example 320] | 4.25 | 4.74 | – | – | – | – | – |
| – | O=S(=O)(Nc1nccs1)c1cc(Cl)c(O[C@@H]2C[C@H]3CC[C@@H](C2)N3Cc2ccccc2)cc1F [Example 17, 4-(((1R,3s,5S)-8-benzyl-8-azabicyclo[3.2.1]octan-3-yl)oxy)-5-chloro-2-fluoro-N-(thiazol-2-yl)benzenesulfonamide] | > 30 | – | 0.155 | > 10 | > 30 | 0.392 | – |
| – | CN(c1cc(F)c(S(=O)(=O)Nc2nccs2)cc1Cl)C1CCN(Cc2ccccc2)CC1 [Example 53, 4-((1-benzylpiperidin-4-yl)(methyl)amino)-5-chloro-2-fluoro-N-(thiazol-2-yl)benzenesulfonamide] | 7.41 | – | – | – | 24.5 | 0.601 | – |
| 3.34 | CN(c1cc(F)c(S(=O)(=O)Nc2cscn2)cc1Cl)[C@H]1CCN(Cc2cnn(Cc3ccccc3)c2)C1 [Example 165, (S)-4-((1-((1-benzyl-1H-pyrazol-4-yl)methyl)pyrrolidin-3-yl)(methyl)amino)-5-chloro-2-fluoro-N-(thiazol-4-yl)benzene-sulfonamide formate] | 4.61 | 6.97 | – | – | – | – | – |
| 1.61 | CN(c1cc(F)c(S(=O)(=O)Nc2cscn2)cc1Cl)[C@H]1CCN(Cc2cccc3cccnc23)C1 [Example 170, (S)-5-chloro-2-fluoro-4-(methyl(1-(quinolin-8-ylmethyl)-pyrrolidin-3-yl)amino)-N-(thiazol-4-yl)benzene-sulfonamide formate] | 11.3 | 21.2 | – | – | – | – | – |
| 0.74 | COc1cccnc1CN1CC[C@H](N(C)c2cc(F)c(S(=O)(=O)Nc3cscn3)cc2Cl)C1 [Example 176, (S)-5-chloro-2-fluoro-4-((1-((3-methoxypyridin-2-yl)methyl)pyrrolidin-3-yl)(methyl)amino)-N-(thiazol-4-yl)benzene-sulfonamide formate] | > 30 | > 30 | – | – | – | – | – |
| 4.89 | CN(c1cc(F)c(S(=O)(=O)Nc2cscn2)cc1Cl)[C@H]1CCN(CCc2ccccc2)C1 [Example 179, (S)-5-chloro-2-fluoro-4-(methyl(1-phenethylpyrrolidin-3-yl)amino)-N-(thiazol-4-yl)benzene-sulfonamide formate] | 6.91 | 20.4 | – | – | – | – | – |
| 1.87 | Cc1ccc(CN2CC[C@H](N(C)c3cc(F)c(S(=O)(=O)Nc4cscn4)cc3Cl)C2)s1 [Example 189, (S)-5-chloro-2-fluoro-4-(methyl(1-((5-methylthiophen-2-yl)methyl)pyrrolidin-3-yl)amino)-N-(thiazol-4-yl)benzene-sulfonamide formate] | 7.38 | 16.6 | – | – | – | – | – |
| 2.33 | CN(c1cc(F)c(S(=O)(=O)Nc2cscn2)cc1Cl)[C@H]1CCN(Cc2ccc3[nH]ccc3c2)C1 [Example 190, (S)-4-((1-((1H-indol-5-yl)methyl)pyrrolidin-3-yl)(methyl)amino)-5-chloro-2-fluoro-N-(thiazol-4-yl)benzene-sulfonamide formate] | 5.17 | 8.25 | – | – | – | – | – |
| – | Cc1c(N(C)[C@H]2CCN(Cc3ccccc3)C2)cc(F)c(S(=O)(=O)Nc2ccsn2)c1F [Example 279, (S)-4-((1-benzylpyrrolidin-3-yl)(methyl)amino)-2,6-difluoro-N-(isothiazol-3-yl)-3-methylbenzenesulfonamide 2,2,2-trifluoroacetate] | 21.2 | – | 0.011 | > 10 | – | 0.064 | > 30 |
| – | C[C@H](c1ccccc1)N1CCC(N(C)c2cc(F)c(S(=O)(=O)Nc3cscn3)cc2Cl)CC1 [Example 280, (R)-5-chloro-2-fluoro-4-(methyl(1-(1-phenylethyl)piperidin-4-yl)amino)-N-(thiazol-4-yl)benzenesulfonamide formate] | 17.4 | – | – | – | 27.1 | 0.228 | – |
| – | Cc1cc(S(=O)(=O)Nc2cscn2)c(F)cc1N(C)C1CCN([C@H](C)c2ccccc2)CC1 [Example 281, (R)-2-fluoro-5-methyl-4-(methyl(1-(1-phenylethyl)piperidin-4-yl)amino)-N-(thiazol-4-yl)benzenesulfonamide 2,2,2-trifluoroacetate] | 14.6 | – | – | – | 13.1 | 0.021 | – |
| – | C[C@H](c1ccccc1)N1CCC(Oc2cc(F)c(S(=O)(=O)Nc3cscn3)c(F)c2Cl)CC1 [Example 283, (R)-3-chloro-2,6-difluoro-4-((1-(1-phenylethyl)piperidin-4-yl)oxy)-N-(thiazol-4-yl)benzenesulfonamide 2,2,2-trifluoroacetate formate] | > 30 | – | 0.037 | > 10 | – | 0.067 | > 30 |
| – | Cc1cccc(CN2CC[C@H](N(C)c3cc(F)c(S(=O)(=O)Nc4ncns4)c(F)c3C)C2)n1 [Example 296, 2,2,2-trifluoroacetate] | > 30 | > 30 | 0.002 | – | – | 0.01 | – |
| – | C[C@H](c1ccccc1)N1CCC(Oc2ccc(S(=O)(=O)Nc3ccncn3)cc2Cl)CC1 [Example 300, (R)-3-chloro-4-((1-(1-phenylethyl)piperidin-4-yl)oxy)-N-(pyrimidin-4-yl)benzenesulfonamide] | > 30 | – | 0.972 | > 10 | – | 1.07 | > 30 |
| – | C[C@H](c1cc(Cl)ccc1F)N1CCC(Oc2ccc(S(=O)(=O)Nc3cscn3)cc2Cl)CC1 [Example 315, (R)-3-chloro-4-((1-(1-(5-chloro-2-fluorophenyl)ethyl)piperidin-4-yl)oxy)-N-(thiazol-4-yl)benzenesulfonamide] | 5.62 | – | 0.377 | 4.25 | – | 1.07 | 6.38 |
| – | O=S(=O)(Nc1cscn1)c1ccc(O[C@@H]2C[C@H]3CC[C@@H](C2)N3Cc2cc(Cl)ccc2F)c(Cl)c1 [Example 316, 3-chloro-4-(((1R,3s,5S)-8-(5-chloro-2-fluorobenzyl)-8-azabicyclo[3.2.1]octan-3-yl)oxy)-N-(thiazol-4-yl)benzenesulfonamide formate] | 2.8 | – | – | – | 5.09 | 3.9 | – |
| – | O=S(=O)(Nc1cscn1)c1ccc(O[C@@H]2C[C@H]3CC[C@@H](C2)N3Cc2ccccc2)c(Cl)c1 [Example 318, 4-(((1R,3s,5S)-8-benzyl-8-azabicyclo[3.2.1]octan-3-yl)oxy)-3-chloro-N-(thiazol-4-yl)benzenesulfonamide] | 13.8 | – | 1.15 | > 10 | 17.4 | 5.46 | – |
| – | O=S(=O)(Nc1cscn1)c1ccc(O[C@@H]2C[C@H]3CC[C@@H](C2)N3Cc2ccc(F)c(Cl)c2)c(Cl)c1 [Example 319, 3-chloro-4-(((1R,3s,5S)-8-(3-chloro-4-fluorobenzyl)-8-azabicyclo[3.2.1]octan-3-yl)oxy)-N-(thiazol-4-yl)benzenesulfonamide formate] | 3.69 | – | – | – | 2.48 | 3.32 | – |
| – | Cc1c(N(C)[C@H]2CCN(Cc3ccccc3)C2)ccc(S(=O)(=O)Nc2cscn2)c1F [Example 321, (S)-4-((1-benzylpyrrolidin-3-yl)(methyl)amino)-2-fluoro-3-methyl-N-(thiazol-4-yl)benzenesulfonamide 2,2,2-trifluoroacetate] | 12.3 | – | 0.137 | > 10 | – | 0.354 | 21.4 |

| Compound | IC50 (NaV1.6 [3]) [µM] | IC50 (NaV1.1 [1]) [µM] | IC50 (NaV1.5 [2]) [µM] | IC50 (NaV1.6 [4]) [µM] | IC50 (NaV1.1 [5]) [µM] | IC50 (NaV1.5 [6]) [µM] | IC50 (NaV1.6 [3]; [8]) [µM] | IC50 (NaV1.5 [7]) [µM] |
| --- | --- | --- | --- | --- | --- | --- | --- | --- |
| Cc1c(OC2(C)CCN(Cc3ccccc3)C2)cc(F)c(S(=O)(=O)Nc2nccs2)c1F (racemic) [Example 228, rac-4-((1-benzyl-3-methylpyrrolidin-3-yl)oxy)-2,6-difluoro-3-methyl-N-(thiazol-2-yl)benzenesulfonamide 2,2,2-trifluoroacetate] | 0.031 | 5.27 | 23.1 | – | – | – | – | – |
| C[C@@H](c1ccccc1)N1CCC(Oc2ccc(S(=O)(=O)Nc3nccs3)cc2Cl)CC1 [Example 58, (S)-3-chloro-4-((1-(1-phenylethyl)piperidin-4-yl)oxy)-N-(thiazol-2-yl)benzenesulfonamide 2,2,2-trifluoroacetate] | 0.402 | – | 5.58 | 0.093 | – | – | – | – |
| Cc1cccc(CN2CC[C@H](N(C)c3cc(F)c(S(=O)(=O)Nc4ncns4)c(F)c3Cl)C2)n1 [Example 297, (S)-3-chloro-2,6-difluoro-4-(methyl (1-((6-methylpyridin-2-yl)methyl)pyrrolidin-3-yl)amino)-N-(1,2,4-thiadiazol-5-yl)benzenesulfonamide 2,2,2-trifluoroacetate] | 0.062 | > 30 | > 30 | 0.012 | – | – | – | – |
| CN(c1ccc(S(=O)(=O)Nc2ncns2)cc1Cl)[C@H]1CCN(Cc2cc(F)cc(F)c2)C1 [Example 327, (S)-3-chloro-4-((1-(3,5-difluorobenzyl)pyrrolidin-3-yl)(methyl)amino)-N-(1,2,4-thiadiazol-5-yl)benzenesulfonamide formate] | 1.04 | 17.3 | > 30 | – | – | – | – | – |
